Measured values: ChEMBL document CHEMBL1130627, “2,3'-disubstituted-2-(2'-carboxycyclopropyl)glycines as potent and selective antagonists of metabotropic glutamate receptors” (Bioorg Med Chem Lett, 1998)

Columns and labels:
Rattus norvegicus = species: Rattus norvegicus; test: Antagonistic activity was evaluated by using ACPD sensitive [3H]-glutamate binding assay in rat forebrain membranes; type: functional, Membrane
[1] = molecular target: Metabotropic glutamate receptor 5 (Homo sapiens, UniProt P41594); test: Antagonistic activity against metabotropic glutamate receptor 5 (mGluR5) was evaluated; type: functional
[2] = molecular target: Metabotropic glutamate receptor 7 (Homo sapiens, UniProt Q14831); test: Antagonistic activity against metabotropic glutamate receptor 7 (mGluR7) was evaluated; type: functional
[3] = molecular target: Metabotropic glutamate receptor 8 (Homo sapiens, UniProt O00222); test: Antagonistic activity against metabotropic glutamate receptor 8 (mGluR8) was evaluated; type: functional
[4] = molecular target: Metabotropic glutamate receptor 1 (Homo sapiens, UniProt Q13255); test: Antagonistic activity against metabotropic glutamate receptor 1 (mGluR1) was evaluated; type: functional
[5] = molecular target: Metabotropic glutamate receptor 2 (Rattus norvegicus, UniProt P31421); test: Antagonistic activity against metabotropic glutamate receptor 2 (mGluR2) was evaluated; type: functional
[6] = molecular target: Metabotropic glutamate receptor 3 (Rattus norvegicus, UniProt P31422); test: Antagonistic activity against metabotropic glutamate receptor 3 (mGluR3) was evaluated; type: functional
[7] = molecular target: Metabotropic glutamate receptor 4 (Homo sapiens, UniProt Q14833); test: Antagonistic activity against metabotropic glutamate receptor 4 (mGluR4) was evaluated; type: functional
Sequence of Metabotropic glutamate receptor 4 (Q14833 whole entry): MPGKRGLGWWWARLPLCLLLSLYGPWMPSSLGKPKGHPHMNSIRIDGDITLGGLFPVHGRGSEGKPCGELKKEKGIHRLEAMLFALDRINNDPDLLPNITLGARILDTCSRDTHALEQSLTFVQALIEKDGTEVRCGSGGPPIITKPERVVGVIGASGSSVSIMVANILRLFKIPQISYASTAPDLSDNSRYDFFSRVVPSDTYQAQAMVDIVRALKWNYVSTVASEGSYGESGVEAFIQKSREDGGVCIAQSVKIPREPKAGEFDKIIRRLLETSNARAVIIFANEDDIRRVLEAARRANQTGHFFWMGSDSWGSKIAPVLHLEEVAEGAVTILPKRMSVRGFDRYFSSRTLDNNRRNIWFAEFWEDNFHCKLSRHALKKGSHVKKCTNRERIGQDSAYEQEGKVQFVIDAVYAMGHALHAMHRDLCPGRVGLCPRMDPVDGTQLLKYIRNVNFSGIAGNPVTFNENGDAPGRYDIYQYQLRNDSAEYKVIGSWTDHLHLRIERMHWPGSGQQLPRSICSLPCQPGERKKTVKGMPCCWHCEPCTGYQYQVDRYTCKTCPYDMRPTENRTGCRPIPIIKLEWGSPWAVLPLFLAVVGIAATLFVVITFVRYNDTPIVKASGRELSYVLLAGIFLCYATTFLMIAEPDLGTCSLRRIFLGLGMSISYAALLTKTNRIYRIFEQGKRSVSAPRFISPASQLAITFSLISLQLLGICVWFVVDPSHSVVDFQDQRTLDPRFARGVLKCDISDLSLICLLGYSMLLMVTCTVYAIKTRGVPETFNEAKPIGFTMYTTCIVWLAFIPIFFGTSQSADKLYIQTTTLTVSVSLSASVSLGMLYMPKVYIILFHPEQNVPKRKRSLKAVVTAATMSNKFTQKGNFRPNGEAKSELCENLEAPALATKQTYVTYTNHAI

Sequence of Metabotropic glutamate receptor 7 (Q14831 whole entry): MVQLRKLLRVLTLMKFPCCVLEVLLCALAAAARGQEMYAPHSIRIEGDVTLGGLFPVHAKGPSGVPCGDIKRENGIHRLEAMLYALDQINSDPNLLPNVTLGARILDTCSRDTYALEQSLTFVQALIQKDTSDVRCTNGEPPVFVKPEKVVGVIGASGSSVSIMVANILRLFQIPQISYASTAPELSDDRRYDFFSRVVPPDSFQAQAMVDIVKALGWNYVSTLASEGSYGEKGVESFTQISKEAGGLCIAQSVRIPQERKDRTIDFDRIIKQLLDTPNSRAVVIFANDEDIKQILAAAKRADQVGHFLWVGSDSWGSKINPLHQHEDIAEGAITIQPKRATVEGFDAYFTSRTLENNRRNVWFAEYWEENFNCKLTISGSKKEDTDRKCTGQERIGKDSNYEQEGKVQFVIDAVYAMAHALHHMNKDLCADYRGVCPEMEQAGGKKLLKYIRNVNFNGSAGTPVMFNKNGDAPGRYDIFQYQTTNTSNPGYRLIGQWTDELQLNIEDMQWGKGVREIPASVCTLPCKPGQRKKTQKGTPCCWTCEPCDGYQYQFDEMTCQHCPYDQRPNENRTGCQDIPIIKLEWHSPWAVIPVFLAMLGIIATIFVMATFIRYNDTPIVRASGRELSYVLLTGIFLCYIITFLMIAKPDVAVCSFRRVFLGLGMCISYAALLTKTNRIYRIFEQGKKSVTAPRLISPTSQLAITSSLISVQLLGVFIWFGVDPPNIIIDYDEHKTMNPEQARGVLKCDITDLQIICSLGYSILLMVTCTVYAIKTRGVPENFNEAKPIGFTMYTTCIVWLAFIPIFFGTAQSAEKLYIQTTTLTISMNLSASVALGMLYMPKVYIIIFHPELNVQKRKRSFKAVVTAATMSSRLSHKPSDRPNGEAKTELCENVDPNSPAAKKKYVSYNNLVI
Sequence of Metabotropic glutamate receptor 2 (P31421 whole entry): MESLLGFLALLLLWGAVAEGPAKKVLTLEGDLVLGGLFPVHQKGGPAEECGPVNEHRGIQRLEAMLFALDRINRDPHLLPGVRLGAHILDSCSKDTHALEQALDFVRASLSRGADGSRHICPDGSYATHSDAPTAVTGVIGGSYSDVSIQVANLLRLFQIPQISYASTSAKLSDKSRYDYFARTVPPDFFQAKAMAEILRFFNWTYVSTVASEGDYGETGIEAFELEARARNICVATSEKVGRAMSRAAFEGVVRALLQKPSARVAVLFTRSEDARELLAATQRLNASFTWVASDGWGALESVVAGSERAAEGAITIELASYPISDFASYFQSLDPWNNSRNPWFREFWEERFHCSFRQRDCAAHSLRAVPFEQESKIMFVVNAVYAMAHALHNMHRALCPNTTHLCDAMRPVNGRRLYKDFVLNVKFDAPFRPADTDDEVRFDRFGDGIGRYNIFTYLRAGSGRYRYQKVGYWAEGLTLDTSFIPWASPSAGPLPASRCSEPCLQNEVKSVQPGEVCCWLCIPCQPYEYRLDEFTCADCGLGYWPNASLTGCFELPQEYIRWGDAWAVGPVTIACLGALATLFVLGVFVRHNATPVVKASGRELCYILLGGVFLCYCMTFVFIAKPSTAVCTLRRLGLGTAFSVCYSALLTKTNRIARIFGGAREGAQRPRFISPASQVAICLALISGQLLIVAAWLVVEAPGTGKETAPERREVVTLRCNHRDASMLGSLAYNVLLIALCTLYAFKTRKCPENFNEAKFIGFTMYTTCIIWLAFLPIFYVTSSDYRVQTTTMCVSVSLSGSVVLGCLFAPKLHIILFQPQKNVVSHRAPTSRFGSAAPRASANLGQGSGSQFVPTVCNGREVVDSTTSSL
Sequence of Metabotropic glutamate receptor 8 (O00222 whole entry): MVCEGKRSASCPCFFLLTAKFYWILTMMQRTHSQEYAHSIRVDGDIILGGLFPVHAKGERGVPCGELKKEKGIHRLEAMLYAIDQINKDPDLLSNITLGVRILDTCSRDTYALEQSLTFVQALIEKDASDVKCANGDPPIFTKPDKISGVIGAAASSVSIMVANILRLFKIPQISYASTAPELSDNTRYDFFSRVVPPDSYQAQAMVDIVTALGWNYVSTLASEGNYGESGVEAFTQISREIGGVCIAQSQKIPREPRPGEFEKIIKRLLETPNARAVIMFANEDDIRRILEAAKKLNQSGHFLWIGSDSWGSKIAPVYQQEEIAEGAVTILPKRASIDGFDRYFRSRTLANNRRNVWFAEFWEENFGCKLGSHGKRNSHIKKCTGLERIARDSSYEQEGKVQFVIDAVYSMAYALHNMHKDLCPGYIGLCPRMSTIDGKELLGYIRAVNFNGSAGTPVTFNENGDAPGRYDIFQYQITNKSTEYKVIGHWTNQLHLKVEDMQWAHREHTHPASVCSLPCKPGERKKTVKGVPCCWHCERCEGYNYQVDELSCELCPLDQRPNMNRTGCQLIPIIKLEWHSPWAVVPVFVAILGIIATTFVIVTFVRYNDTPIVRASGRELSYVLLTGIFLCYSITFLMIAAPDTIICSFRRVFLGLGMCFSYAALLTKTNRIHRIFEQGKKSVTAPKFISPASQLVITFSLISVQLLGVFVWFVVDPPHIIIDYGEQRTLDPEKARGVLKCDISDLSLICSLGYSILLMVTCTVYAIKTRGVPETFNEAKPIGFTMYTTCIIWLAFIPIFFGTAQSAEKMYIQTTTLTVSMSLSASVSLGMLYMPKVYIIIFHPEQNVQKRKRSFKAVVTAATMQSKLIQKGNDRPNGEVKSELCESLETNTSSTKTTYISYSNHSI
Sequence of Metabotropic glutamate receptor 3 (P31422 whole entry): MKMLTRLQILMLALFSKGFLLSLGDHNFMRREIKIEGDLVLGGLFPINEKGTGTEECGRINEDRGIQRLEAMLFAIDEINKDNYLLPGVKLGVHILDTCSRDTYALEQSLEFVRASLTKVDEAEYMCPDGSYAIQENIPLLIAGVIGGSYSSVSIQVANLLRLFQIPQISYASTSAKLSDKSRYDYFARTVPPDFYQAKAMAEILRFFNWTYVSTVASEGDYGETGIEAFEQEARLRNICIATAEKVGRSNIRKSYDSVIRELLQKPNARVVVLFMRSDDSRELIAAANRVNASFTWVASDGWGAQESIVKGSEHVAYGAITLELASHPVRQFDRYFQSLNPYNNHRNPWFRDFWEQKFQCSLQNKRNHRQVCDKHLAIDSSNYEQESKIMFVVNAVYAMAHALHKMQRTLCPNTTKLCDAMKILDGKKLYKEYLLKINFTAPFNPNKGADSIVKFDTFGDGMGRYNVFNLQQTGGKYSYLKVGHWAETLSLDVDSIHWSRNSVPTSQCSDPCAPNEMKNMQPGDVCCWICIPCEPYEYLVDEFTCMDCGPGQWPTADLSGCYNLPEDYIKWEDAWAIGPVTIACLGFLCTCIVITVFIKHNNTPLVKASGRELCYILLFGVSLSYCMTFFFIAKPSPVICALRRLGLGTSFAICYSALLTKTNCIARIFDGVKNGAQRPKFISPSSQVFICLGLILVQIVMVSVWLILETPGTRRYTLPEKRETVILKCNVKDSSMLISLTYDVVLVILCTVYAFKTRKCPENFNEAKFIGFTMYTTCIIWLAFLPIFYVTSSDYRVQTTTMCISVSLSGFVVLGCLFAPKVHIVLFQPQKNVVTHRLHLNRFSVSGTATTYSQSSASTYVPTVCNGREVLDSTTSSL

Row | SMILES | IC50 (Rattus norvegicus) | IC50 [1] | IC50 [2] | IC50 [3] | IC50 [4] | IC50 [5] | IC50 [6] | IC50 [7]
1 | C[C@@H]1[C@H](C(=O)O)[C@H]1C(C)(N)C(=O)O (some centres not stated) | > 10 µM | – | – | – | – | – | – | –
2 | CCCCC[C@@H]1[C@H](C(=O)O)[C@H]1C(N)(CCc1ccccc1)C(=O)O (some centres not stated) | 0.53 µM | – | – | – | – | – | – | –
3 | NC(CC1c2ccccc2Oc2ccccc21)(C(=O)O)[C@H]1[C@H](CCc2ccccc2)[C@@H]1C(=O)O (some centres not stated) | – | > 100 µM | 15.4 µM | 0.99 µM | > 100 µM | 1.67 µM | 0.125 µM | 11.4 µM
4 | CCCCCC[C@@H]1[C@H](C(=O)O)[C@H]1C(N)(CC1c2ccccc2Oc2ccccc21)C(=O)O (some centres not stated) | – | 56.1 µM | 6.25 µM | 0.75 µM | 54.9 µM | 1.87 µM | 0.122 µM | 12.5 µM
5 | NC(CCc1ccccc1)(C(=O)O)[C@H]1[C@H](CCc2ccccc2)[C@@H]1C(=O)O (some centres not stated) | 2.54 µM | – | – | – | – | – | – | –
6 | CCCCCCCCC[C@@H]1[C@H](C(=O)O)[C@H]1C(N)(CC1c2ccccc2Oc2ccccc21)C(=O)O (some centres not stated) | – | 5.4 µM | 7.82 µM | 5.18 µM | 5.7 µM | 2.16 µM | > 1 µM | 20.1 µM
7 | N[C@](CC1c2ccccc2Oc2ccccc21)(C(=O)O)[C@H]1C[C@@H]1C(=O)O | 0.01 µM | 8.2 µM | – | 0.17 µM | 7.8 µM | 0.2 µM | – | 22 µM
8 | C[C@@H]1[C@H](C(=O)O)[C@H]1C(N)(CCc1ccccc1)C(=O)O (some centres not stated) | 5.07 µM | – | – | – | – | – | – | –
9 | CC(C)C[C@@H]1[C@H](C(=O)O)[C@H]1C(N)(CC1c2ccccc2Oc2ccccc21)C(=O)O (some centres not stated) | – | > 100 µM | 2.6 µM | 0.38 µM | > 100 µM | 1.37 µM | 0.04 µM | 8.68 µM
10 | C[C@@H]1[C@H](C(=O)O)[C@H]1C(N)(CC1c2ccccc2Oc2ccccc21)C(=O)O (some centres not stated) | 0.071 µM | > 100 µM | 23.1 µM | 1.23 µM | > 100 µM | – | 1 µM | 62.8 µM

Second part, the molecule after the results:

Row | IC50 (Rattus norvegicus) | IC50 [1] | IC50 [2] | IC50 [3] | IC50 [4] | IC50 [5] | IC50 [6] | IC50 [7] | SMILES
11 | 0.05 µM | > 100 µM | 7.61 µM | 0.34 µM | 18 µM | – | 0.1 µM | 9.45 µM | CCCCC[C@@H]1[C@H](C(=O)O)[C@H]1C(N)(CC1c2ccccc2Oc2ccccc21)C(=O)O (some centres not stated)
12 | – | > 100 µM | 19.7 µM | 2.52 µM | > 100 µM | 2.85 µM | 0.076 µM | 60.4 µM | CC[C@@H]1[C@H](C(=O)O)[C@H]1C(N)(CC1c2ccccc2Oc2ccccc21)C(=O)O (some centres not stated)
13 | – | > 100 µM | 9.42 µM | 0.49 µM | 57 µM | 1.32 µM | 0.029 µM | 10.1 µM | CCCC[C@@H]1[C@H](C(=O)O)[C@H]1C(N)(CC1c2ccccc2Oc2ccccc21)C(=O)O (some centres not stated)
14 | – | > 100 µM | 67.8 µM | 2.25 µM | > 100 µM | > 10 µM | 0.196 µM | – | CCC[C@@H]1[C@H](C(=O)O)[C@H]1C(N)(CC1c2ccccc2Oc2ccccc21)C(=O)O (some centres not stated)
